Experimental data as given in ChEMBL document CHEMBL3872207, “Aromatic heterocyclic esters of podophyllotoxin exert anti-MDR activity in human leukemia K562/ADR cells via ROS/MAPK signaling pathways” (Eur J Med Chem, 2016).
Active and inactive are the calls of the source. No cut-off for these calls is given here.

Assays:
[1] = tested on: K562/Adr; test: Induction of apoptosis in human K562/ADR cells assessed as cell shrinkage at 0.1 uM measured after 24 hrs by Hoechst33342 staining-based inverted fluorescent microscopic analysis; type: functional
[2] = Downregulation of CDK1 expression in human K562/ADR cells assessed as ratio of CDK1 to beta-actin level at 0.1 uM pretreated with MAPK inhibitor SP600125for 1 hr followed by compound addition measured after 48 hrs by Western blot analysis (reference value: 0.53); type: functional, cell-based
[3] = tested on: K562/Adr; test: Induction of apoptosis in human K562/ADR cells assessed as ratio of cleaved caspase-9 to beta-actin level at 0.1 uM measured after 48 hrs by Western blot analysis (reference value: 0.05); type: functional
[4] = tested on: K562/Adr; test: Induction of apoptosis in human K562/ADR cells assessed as ratio of cleaved PARP to beta-actin level at 0.1 uM pretreated with ROS scavenger NAC for 2 hrs followed by compound addition measured after 48 hrs by Western blot analysis (reference value: 0.04); type: functional
[5] = Potency index, ratio of etoposide IC50 to compound IC50 for antiproliferative activity against human K562/ADR cells; type: functional
[6] = tested on: K562/Adr; test: Induction of apoptosis in human K562/ADR cells assessed as early apoptotic cells at 0.1 uM after 48 hrs by Annexin V-APC/7-AAD staining based flow cytometry (reference value: 2.74%); type: functional
[7] = tested on: K562/Adr; test: Induction of ROS generation in human K562/ADR cells at 0.1 uM measured after 24 hrs by DCFH-DA probe based inverted fluorescence microscopy; type: functional, cell-based
[8] = tested on: K562/Adr; test: Induction of apoptosis in human K562/ADR cells assessed as ratio of cleaved caspase-3 to beta-actin level at 0.1 uM pretreated with ROS scavenger NAC for 2 hrs followed by compound addition measured after 48 hrs by Western blot analysis (reference value: 0.06); type: functional
[9] = tested on: K562/Adr; test: Induction of apoptosis in human K562/ADR cells assessed as membrane blebbing at 0.1 uM measured after 24 hrs by Hoechst33342 staining-based inverted fluorescent microscopic analysis; type: functional, cell-based
[10] = tested on: K562/Adr; test: Induction of apoptosis in human K562/ADR cells assessed as viable cells at 0.1 uM pretreated with ROS scavenger NAC for 2 hrs followed by compound addition after 48 hrs by Annexin V-APC/7-AAD staining based flow cytometry (reference value: 95.31%); type: functional; settings: read-out: Activity
[11] = tested on: K562/Adr; test: Induction of apoptosis in human K562/ADR cells assessed as ratio of cleaved caspase-9 to beta-actin level at 0.1 uM pretreated with MAPK inhibitor SB203580 for 1 hr followed by compound addition measured after 48 hrs by Western blot analysis (reference value: 0.05); type: functional
[12] = Potency index, ratio of doxorubicin IC50 to compound IC50 for antiproliferative activity against human K562/ADR cells; type: functional
[13] = Downregulation of CyclinB1 expression in human K562/ADR cells assessed as ratio of CyclinB1 to beta-actin level at 0.1 uM pretreated with MAPK inhibitor SB203580 for 1 hr followed by compound addition measured after 48 hrs by Western blot analysis (reference value: 0.77); type: functional, cell-based
[14] = tested on: K562/Adr; test: Induction of apoptosis in human K562/ADR cells assessed as late apoptotic cells at 0.1 uM pretreated with MAPK inhibitor SB203580 for 1 hr followed by compound addition after 48 hrs by Annexin V-APC/7-AAD staining based flow cytometry (reference value: 1.69%); type: functional; parameters: scale not given: the % may be the effect or the level left
[15] = tested on: K562/Adr; test: Induction of apoptosis in human K562/ADR cells assessed as ratio of cleaved caspase-8 to beta-actin level at 0.1 uM measured after 48 hrs by Western blot analysis (reference value: 0.07); type: functional
[16] = tested on: K562/Adr; test: Induction of apoptosis in human K562/ADR cells assessed as early apoptotic cells at 0.1 uM pretreated with ROS scavenger NAC for 2 hrs followed by compound addition after 48 hrs by Annexin V-APC/7-AAD staining based flow cytometry (reference value: 2.74%); type: functional
[17] = Downregulation of CDK2 expression in human K562/ADR cells assessed as ratio of CDK2 to beta-actin level at 0.1 uM measured after 48 hrs by Western blot analysis (reference value: 0.65); type: functional, cell-based
[18] = Downregulation of CyclinA expression in human K562/ADR cells assessed as ratio of CyclinA to beta-actin level at 0.1 uM measured after 48 hrs by Western blot analysis (reference value: 0.64); type: functional, cell-based
[19] = target: c-Jun N-terminal kinase, JNK (Homo sapiens) (UniProt P45983+P53779+P45984); test: Induction of JNK phosphorylation in human K562/ADR cells assessed as ratio of phosphorylated JNK to beta-actin level at 0.1 uM pretreated with MAPK inhibitor U0126 for 1 hr followed by compound addition after 48 hrs by Western blotting method (reference value: 0.46); type: cell-based
[20] = tested on: K562/Adr; test: Induction of apoptosis in human K562/ADR cells assessed as necrotic cells at 0.1 uM pretreated with MAPK inhibitor SB203580 for 1 hr followed by compound addition after 48 hrs by Annexin V-APC/7-AAD staining based flow cytometry (reference value: 0.26%); type: functional; parameters: scale not given: the % may be the effect or the level left
[21] = Downregulation of CyclinB1 expression in human K562/ADR cells assessed as ratio of CyclinB1 to beta-actin level at 0.1 uM pretreated with MAPK inhibitor U0126 for 1 hr followed by compound addition measured after 48 hrs by Western blot analysis (reference value: 0.77); type: functional, cell-based
[22] = Downregulation of CyclinB1 expression in human K562/ADR cells assessed as ratio of CyclinB1 to beta-actin level at 0.1 uM measured after 48 hrs by Western blot analysis (reference value: 0.77); type: functional, cell-based
[23] = Downregulation of P-gp expression in human K562/ADR cells assessed as ratio of P-gp to beta-actin level at 0.1 uM pretreated with ROS scavenger NAC for 2 hrs followed by compound addition measured after 48 hrs by Western blot analysis (reference value: 0.63); type: functional, cell-based
[24] = Downregulation of P-gp expression in human K562/ADR cells assessed as ratio of P-gp to beta-actin level at 0.1 uM pretreated with MAPK inhibitor SP600125 for 1 hr followed by compound addition measured after 48 hrs by Western blot analysis (reference value: 0.63); type: functional, cell-based
[25] = tested on: K562/Adr; test: Induction of apoptosis in human K562/ADR cells assessed as ratio of cleaved caspase-8 to beta-actin level at 0.1 uM pretreated with MAPK inhibitor SP600125 for 1 hr followed by compound addition measured after 48 hrs by Western blot analysis (reference value: 0.07); type: functional
[26] = tested on: K562/Adr; test: Induction of apoptosis in human K562/ADR cells assessed as late apoptotic cells at 0.1 uM pretreated with ROS scavenger NAC for 2 hrs followed by compound addition after 48 hrs by Annexin V-APC/7-AAD staining based flow cytometry (reference value: 1.69%); type: functional
[27] = tested on: K562/Adr; test: Induction of apoptosis in human K562/ADR cells assessed as viable cells at 0.1 uM after 48 hrs by Annexin V-APC/7-AAD staining based flow cytometry (reference value: 95.31%); type: functional; settings: read-out: Activity

Question: Which Activity [1] does the source give for COc1cc([C@@H]2c3cc4c(cc3[C@H](OC(=O)c3ccco3)[C@H]3COC(=O)[C@H]23)OCO4)cc(OC)c1OC here?
Answer: Active

Question: What about the Ratio [2] of the same compound?
Answer: 0.19

Question: And the Ratio [3]?
Answer: 0.69

Question: What about the Ratio [4] of the same compound?
Answer: 0.13

Question: What about the “Ratio IC50” value [5] of the same compound?
Answer: 69.093

Question: What about the Activity [6] of the same compound?
Answer: 7.92%

Question: What about the Activity [7] of the same compound?
Answer: Active

Question: And the Ratio [8]?
Answer: 0.2

Question: What about the Activity [9] of the same compound?
Answer: Active

Question: What about the viability at 0.1 µM [10] of the same compound?
Answer: 65.5%

Question: And the Ratio [11]?
Answer: 0.44

Question: And the “Ratio IC50” value [12]?
Answer: 586.843

Question: What about the Ratio [13] of the same compound?
Answer: 0.26

Question: And the Activity [14]?
Answer: 30.87%

Question: What about the Ratio [15] of the same compound?
Answer: 0.77

Question: What about the Activity [16] of the same compound?
Answer: 8.06%

Question: What about the Ratio [17] of the same compound?
Answer: 0.14

Question: What about the Ratio [18] of the same compound?
Answer: 0.15

Question: And the Ratio [19]?
Answer: 0.35

Question: And the Activity [20]?
Answer: 2.86%

Question: And the Ratio [21]?
Answer: 0.51

Question: And the Ratio [22]?
Answer: 0.19

Question: And the Ratio [23]?
Answer: 0.66

Question: And the Ratio [24]?
Answer: 0.34

Question: What about the Ratio [25] of the same compound?
Answer: 0.47

Question: What about the Activity [26] of the same compound?
Answer: 24.34%

Question: And the viability at 0.1 µM [27]?
Answer: 46.1%
